In patent publication US9328112B2, “Tetracyclic CDK9 kinase inhibitors” (AbbVie Inc., priority 2014, dated 2016):

What was measured:
CDK9/Cyclin T1 = CDK9/Cyclin T1 (Homo sapiens (Human), UniProt P50750); assay: CDK9 enzyme assay (LANCE ULight TR-FRET kinase assay); type: biochemical; conditions: 1000 μM ATP, 100 nM ULight MBP, kinase reaction 1 hour
Method in brief: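 Human CDK9/Cyclin T1 phosphorylating 100 nM ULight-MBP with 1000 μM ATP in HEPES/MgCl2 buffer, 1 h reaction. Stopped with 20 mM EDTA plus 0.5 nM Eu anti-phospho-MBP antibody, incubated 1 h, read by TR-FRET (ex 320 nm, em 615/665 nm).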

H929 cells = assay: Cell viability assay (Cell TiterGlo); type: cell-based; conditions: Homo sapiens, NCI-H929, 24 hours at 37° C., Cell TiterGlo luminescence
Procedure: The cell viability assay was performed using H929 cells. Cells were seeded in 96-well plates at 10,000 cells/well and, after overnight incubation, treated with compounds in a dose response of 3-fold dilutions from 10 μM to 0.005 μM ([…], 0.1% final DMSO concentration). After 24 hours at 37° C., cell viability was measured using Cell TiterGlo reagent (Promega) with a luminescence reader.

Chain of CDK9/Cyclin T1 (P50750 whole entry): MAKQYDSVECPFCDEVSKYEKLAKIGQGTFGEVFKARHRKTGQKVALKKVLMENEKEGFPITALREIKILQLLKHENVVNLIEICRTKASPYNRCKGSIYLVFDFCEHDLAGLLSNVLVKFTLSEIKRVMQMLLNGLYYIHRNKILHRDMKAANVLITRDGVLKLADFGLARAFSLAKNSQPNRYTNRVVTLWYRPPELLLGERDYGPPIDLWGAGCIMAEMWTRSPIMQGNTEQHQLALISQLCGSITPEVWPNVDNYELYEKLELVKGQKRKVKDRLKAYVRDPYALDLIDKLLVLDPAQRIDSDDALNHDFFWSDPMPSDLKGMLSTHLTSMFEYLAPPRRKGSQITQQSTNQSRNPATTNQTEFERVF
Chain of CDK9/Cyclin T1 (O60563 whole entry partner): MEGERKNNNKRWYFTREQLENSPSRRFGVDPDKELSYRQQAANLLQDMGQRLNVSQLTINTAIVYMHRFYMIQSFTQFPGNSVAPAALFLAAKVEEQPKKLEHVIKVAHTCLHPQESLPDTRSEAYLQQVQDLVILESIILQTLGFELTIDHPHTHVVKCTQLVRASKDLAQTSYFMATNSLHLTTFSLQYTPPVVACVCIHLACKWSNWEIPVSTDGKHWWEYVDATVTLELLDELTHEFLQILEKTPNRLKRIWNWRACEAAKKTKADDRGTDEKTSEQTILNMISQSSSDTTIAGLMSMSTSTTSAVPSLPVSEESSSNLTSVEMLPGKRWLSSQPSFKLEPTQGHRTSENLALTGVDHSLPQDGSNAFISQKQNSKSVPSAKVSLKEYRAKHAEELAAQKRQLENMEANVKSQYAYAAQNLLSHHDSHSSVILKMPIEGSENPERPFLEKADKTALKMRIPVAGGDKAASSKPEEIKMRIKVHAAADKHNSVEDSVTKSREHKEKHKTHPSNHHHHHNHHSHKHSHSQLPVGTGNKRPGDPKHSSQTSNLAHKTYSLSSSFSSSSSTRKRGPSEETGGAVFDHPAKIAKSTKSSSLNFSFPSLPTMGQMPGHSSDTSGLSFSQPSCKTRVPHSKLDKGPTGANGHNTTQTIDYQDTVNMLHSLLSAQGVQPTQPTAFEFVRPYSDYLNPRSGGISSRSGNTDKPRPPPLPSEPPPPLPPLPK

SMILES | IC50 (CDK9/Cyclin T1) | IC50 (H929 cells)
CC[C@H]1c2c(C3=CCN(CC(=O)N(C)C)CC3)[nH]c3nccc(c23)-c2cc(F)ccc2N1C [Example 168, 2-{4-[(6S)-6-ethyl-10-fluoro-7-methyl-6,7-dihydro-4H-3,4,7-triazadibenzo[cd,f]azulen-5-yl]-3,6-dihydropyridin-1(2H)-yl}-N,N-dimethylacetamide] | 0.06 µM | 0.008 µM
CN(CCO)C(=O)CN1CC=C(c2[nH]c3nccc4c3c2CN(C)c2cc(F)c(F)cc2-4)CC1 [Example 157, 2-[4-(9,10-difluoro-7-methyl-6,7-dihydro-4H-3,4,7-triazadibenzo[cd,f]azulen-5-yl)-3,6-dihydropyridin-1(2H)-yl]-N-(2-hydroxyethyl)-N-methylacetamide] | 0.046 µM | 0.01 µM
CN1Cc2c(C3=CCN(CC(=O)OC(C)(C)C)CC3)[nH]c3ncc(F)c(c23)-c2cc(F)ccc21 [Example 65, tert-butyl[4-(1,10-difluoro-7-methyl-6,7-dihydro-4H-3,4,7-triazadibenzo[cd,f]azulen-5-yl)-3,6-dihydropyridin-1(2H)-yl]acetate] | 0.1 µM | 0.14 µM
CN(CCO)C(=O)CN1C2C=C(c3[nH]c4nccc5c4c3CN(C)c3ccc(F)cc3-5)CC1CCC2 (stereo not shown) [Example 103, 2-[3-(10-fluoro-7-methyl-6,7-dihydro-4H-3,4,7-triazadibenzo[cd,f]azulen-5-yl)-9-azabicyclo[3.3.1]non-2-en-9-yl]-N-(2-hydroxyethyl)-N-methylacetamide] | 0.086 µM | 0.051 µM
CN1Cc2c(C3=CCN(C4CCC(=CC#N)CC4)CC3)[nH]c3nccc(c23)-c2cc(F)ccc21 (stereo not shown) [Example 173, {4-[4-(10-fluoro-7-methyl-6,7-dihydro-4H-3,4,7-triazadibenzo[cd,f]azulen-5-yl)-3,6-dihydropyridin-1(2H)-yl]cyclohexylidene}acetonitrile] | 0.045 µM | 0.068 µM
CN1Cc2c(C3=CCN(CC(=O)O)CC3)[nH]c3ncc(F)c(c23)-c2cc(F)ccc21 [Example 67, [4-(1,10-difluoro-7-methyl-6,7-dihydro-4H-3,4,7-triazadibenzo[cd,f]azulen-5-yl)-3,6-dihydropyridin-1(2H)-yl]acetic acid] | 0.048 µM | 0.13 µM
CN(C)C(=O)CN1CC=C(c2[nH]c3ncc(F)c4c3c2CN(C)c2ccccc2-4)CC1 [Example 163, 2-[4-(1-fluoro-7-methyl-6,7-dihydro-4H-3,4,7-triazadibenzo[cd,f]azulen-5-yl)-3,6-dihydropyridin-1(2H)-yl]-N,N-dimethylacetamide] | 0.056 µM | 0.007 µM
CN1Cc2c(-c3ccc(C(=O)O)cc3)[nH]c3nccc(c23)-c2cc(F)ccc21 [Example 47, 4-(10-fluoro-7-methyl-6,7-dihydro-4H-3,4,7-triazadibenzo[cd,f]azulen-5-yl)benzoic acid] | 0.15 µM | 9.8 µM
CN1Cc2c(-c3ccncc3)[nH]c3nccc(c23)-c2cc(F)ccc21 [Example 44, 10-fluoro-7-methyl-5-(pyridin-4-yl)-6,7-dihydro-4H-3,4,7-triazadibenzo[cd,f]azulene] | 0.13 µM | 0.49 µM
CN1Cc2c(C3=CC4CN(CC(=O)N(C)C5CC(O)C5)CC4C3)[nH]c3nccc(c23)-c2cc(F)ccc21 (stereo not shown) [Example 94, 2-[5-(10-fluoro-7-methyl-6,7-dihydro-4H-3,4,7-triazadibenzo[cd,f]azulen-5-yl)-3,3a,4,6a-tetrahydrocyclopenta[c]pyrrol-2 (1H)-yl]-N-(3-hydroxycyclobutyl)-N-methylacetamide] | 0.1 µM | 0.091 µM
CN1Cc2c(C3=CCN(CC(=O)N(C)C4CC(O)C4)CC3)[nH]c3nccc(c23)-c2cc(F)ccc21 (stereo not shown) [Example 24, 2-[4-(10-fluoro-7-methyl-6,7-dihydro-4H-3,4,7-triazadibenzo[cd,f]azulen-5-yl)-3,6-dihydropyridin-1(2H)-yl]-N-(3-hydroxycyclobutyl)-N-methylacetamide] | 0.04 µM | 0.027 µM
